Experimental data published in US7504538B2, “Amide or thioamide derivatives and their use in the treatment of pain” (Cara Therapeutics, Inc., priority 2003, dated 2009).

Key:
hCB2-R = biological target: T1, hCB2-R (Homo sapiens, UniProt P34972); test: CB2 ligand binding assay ([3H]-CP55940 displacement, CHO-K1 membranes); conditions: 0.3-0.5 nM [3H]-CP55940, CB2 membranes, 2 h at 30° C.; read-out: Binding constants (Ki) to hCB2-R
T1 construct: expressed in transfected cells; membranes
Source text: (§1) The biological assays used were essentially set up as described in Munro, S., Thomas, K. L., Abu-Shaar, M. in “Molecular characterisation of a peripheral receptor for cannabinoids” Nature 365:61-65 (1993) and Kim, S. H. and Chung, J. M. in “An experimental model for peripheral neuropathy produced by segmental spinal nerve ligation in the rat” Pain 50:355-363 (1992).
Monoclonal HEK cell lines with stable expression of the human CB1 receptor and CHO-K1 cell lines with stable expression of hCB2-R were established. The CB binding assays were performed with membranes prepared from these cell lines. The CB2 ligand binding mixture contains 0.3-0.5 nM [^3H]-CP55940, 7 μg of CB2 membranes and the test compounds in a concentration range of from 1.0×10^−4 to 1.0×10^−12 M. The assay buffer comprises 50 mM Tris-HCl (pH 7.4), 5 MM MgCl2, 2.5 mM EDTA and 5 mg/ml fatty acid-free bovine serum albumin. The binding mixtures are incubated for 2 h at 30° C. and terminated by rapid filtration (Brandel 96 well cell harvester) over 934AH filters (Whatman) followed by 6 washes with ice-cold binding buffer. The filters are dried and [^3H]-CP55940 bound radioactivity is determined by liquid scintillation counting. Non-specific binding is determined in the presence of 10 μM CP55940. The binding data is analysed with the program GraphPad Prism (provided by GraphPad Software, San Diego, Calif., USA).

rats [1] = test: Formalin flinch test (inflammatory pain); type: in vivo; conditions: rat; for A50 Formalin Phase II: inflammatory phase (10-60 min); for A50 Formalin Phase I: tonic phase (first 10 min)
Source text: as §1
(§2) Inflammatory (Formalin flinch test) and chronic pain (L5/L6 nerve ligation injury) models were used as assays in both rats and mice.
Animals are habituated to the their local environment for about 30 min prior to testing. The formalin test is carried out in a 30×30×30 cm chamber with the front and bottom of the chambers made of clear plexiglass. Mirrors are placed at a 45° angle under the chambers in order to have an un-obstructive view of the paws. Animals are restrained manually and 2% formalin (aq) is injected subcutaneously into the planar surface of the left paw with a 30 gauge needle. The numbers of paw flinches are then recorded in 5 min intervals from the time of injection for a 60 min period. Elevations of the paw, licking and biting of the injected paw were counted as “flinches”. The tonic or “first phase” of the nociceptive response peaked at 5 min after formalin injection and the inflammatory or “second phase” peaked at 30 min after formalin injection. The number of flinches in the first 10 min were representative of the tonic phase and the number of flinches from 10 min until 60 min were representative of the inflammatory phase. Antinociception for both phase I and phase II was calculated as follows: % antinociception=100×(# of flinches in control animal−# of flinches in drug treated animal)/(# of flinches in control animal)
Potency (A50) is calculated from the full dose response curve for both phase I and phase II.

rats [2] = test: L5/L6 nerve ligation injury, tactile allodynia (von Frey); type: in vivo; conditions: rat
Source text: as §1, §2
Nerve ligation injury was performed according to the method described previously (Kim and Chung). This methodology produces signs of tactile allodynia and thermal hyperalgesia. Rats were anesthetized with halothane and the L5 and L6 spinal nerves were exposed, carefully isolated, and tightly ligated with 4-0 silk suture distal to the dorsal root ganglia (DRG). After ensuring homeostatic stability the wounds were sutured, and the animals were allowed to recover in individual cages. Sham-operated rats were prepared in an identical fashion except that the L5 and L6 spinal nerves were not ligated. Compound 17 was tested in rats after L5/L6 nerve ligation. […]
In the evaluation of the tactile allodynia, the paw withdrawal threshold was determined in response to probing with calibrated von Frey filaments. […] The 50% paw withdrawal threshold was determined by the nonparametric method. […]

rats [3] = test: L5/L6 nerve ligation injury, thermal hyperalgesia; type: in vivo; conditions: rat
Source text: as §1, §2
Nerve ligation injury was performed according to the method described previously (Kim and Chung). This methodology produces signs of tactile allodynia and thermal hyperalgesia. Rats were anesthetized with halothane and the L5 and L6 spinal nerves were exposed, carefully isolated, and tightly ligated with 4-0 silk suture distal to the dorsal root ganglia (DRG). After ensuring homeostatic stability the wounds were sutured, and the animals were allowed to recover in individual cages. Sham-operated rats were prepared in an identical fashion except that the L5 and L6 spinal nerves were not ligated. Compound 17 was tested in rats after L5/L6 nerve ligation. Compound administration was directly into the hind paw (i.paw) or into the peritoneal cavity (i.p.).

T1 sequence (P34972 whole entry): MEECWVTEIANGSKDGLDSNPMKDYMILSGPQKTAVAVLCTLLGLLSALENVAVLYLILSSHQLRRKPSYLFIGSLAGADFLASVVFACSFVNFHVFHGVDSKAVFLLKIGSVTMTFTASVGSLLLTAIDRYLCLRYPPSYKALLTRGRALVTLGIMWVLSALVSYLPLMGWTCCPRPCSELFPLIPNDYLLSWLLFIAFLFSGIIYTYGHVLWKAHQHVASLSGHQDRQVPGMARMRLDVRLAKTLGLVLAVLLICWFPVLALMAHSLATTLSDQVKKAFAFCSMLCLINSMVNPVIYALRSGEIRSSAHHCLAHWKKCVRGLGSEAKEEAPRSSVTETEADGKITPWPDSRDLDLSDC

Row | Compound | Ki (hCB2-R) [nM] | other results
1 | NC(=O)[C@@H]1CCCC[C@H]1N(CCCC1CCCCC1)C(=O)Nc1ccccc1 (relative stereo) [Compound 7, trans-2-[1-(3-cyclohexylpropyl)-3-phenylureido]cyclo-hexanecarboxamide] | 1500 | 
2 | NC(=O)CCCN(Cc1ccccc1)C(=O)Nc1ccccc1 [Compound 14, 4-(1-benzyl-3-phenylureido)butyramide] | 840 | 
3 | Cc1c(C(=O)c2cccc3ccccc23)c2cccc3c2n1[C@H](CN1CCOCC1)CO3 [WIN-55, 212-2, reference compound] |  | A50 Formalin Phase II (rats [1]; i. paw): 25 mg/paw; A50 Formalin Phase I (rats [1]; i. paw): 12 mg/paw
4 | NC(=O)CCCN(CCCC1CCCCC1)C(=O)Nc1ccc2ccccc2c1 [Compound 10, 4-[1-(3-cyclohexylpropyl)-3-naphthalen-2-yl-ureido]-butyramide] | 1000 | 
5 | NC(=O)CCCN(CCCCCCc1ccccc1)C(=O)Nc1ccccc1 [Compound 2, 4-[3-phenyl-1-(6-phenylhexyl)ureido]butyramide] | 450 | 
6 | CC(C)c1ccc(CN(CCCC(N)=O)C(=O)Nc2ccccc2)cc1 [Compound 4, 4-[1-(4-isopropylbenzyl)-3-phenylureido]butyramide] | 780 | 
7 | NC(=O)CCCCCCCN(CCCC1CCCCC1)C(=O)Cc1ccc2ccccc2c1 [Compound 9, 8-[(3-cyclohexylpropyl)-(2-naphthalen-2-yl-acetyl)amino]-octanamide] | 15000 | 
8 | NC(=O)CCCN(CCc1ccc2ccccc2c1)C(=O)Nc1ccccc1 [Compound 11, 4-[1-(2-naphthalen-2-yl-ethyl)-3-phenylureido]butyr-amide] | 770 | 
9 | CCCCc1ccc(CN(CCCC(N)=O)C(=O)Nc2ccccc2)cc1 [Compound 3, 4-[1-(4-butylbenzyl)-3-phenylureido]butyramide] | 120 | 
10 | NC(=O)CCCN(CCCCCc1ccccc1)C(=O)Nc1ccccc1 [Compound 16, 4-[3-phenyl-1-(5-phenylpentyl)ureido]butyramide] | 130 | 
11 | NC(=O)CCCN(CCCC1CCCCC1)C(=O)Nc1ccccc1 [Compound 17, 4-[1-(3-cyclohexylpropyl)-3-phenylureido]butyramide] | 110 | A50 Formalin Phase II (rats [1]; i. paw): 28 mg/paw; A50 Formalin Phase I (rats [1]; i. paw): <10 mg/paw; A50 Formalin Phase II (rats [1]; i.p.): 0.01 mg/kg; A50 Formalin Phase I (rats [1]; i.p.): <0.01 mg/kg; antiallodynic effect (rats [2]; L5/L6 nerve ligation, 100 μg (in 50 μl) into the paw): 90%; A50 L5/L6 anti-allodynia (rats [2]; i. paw): <30 mg/paw; antihyperalgesic response to the thermal testing (rats [3]; L5/L6 spinal nerve ligation, 30 μg (in 50 μl) into the paw): 100%; A50 L5/L6 anti-hyperalgesia (rats [3]; i. paw): <30 mg/paw
12 | O=C(CCCN(CCCC1CCCCC1)C(=O)Nc1ccccc1)NCc1ccc(Cl)cc1 [Compound 6, N-(4-chlorobenzyl)-4-[1-(3-cyclohexylpropyl)-3-phenyl-ureido]butyramide] | 2200 | 
13 | NC(=O)CCCN(CCCC1CCCCC1)C(=O)Cc1ccc2ccccc2c1 [Compound 8, 4-[(3-cyclohexylpropyl)-(2-naphthalen-2-yl-acetyl)amino]-butyramide] | 2700 | 
14 | CC(C)CCCN(CCCC(N)=O)C(=O)Nc1ccccc1 [Compound 5, 4-[1-(4-methylpentyl)-3-phenylureido]butyramide] | 1100 | 
15 | NC(=O)CCCN(CCCC1CCCC1)C(=O)Nc1ccccc1 [Compound 15, 4-[1-(3-cyclopentylpropyl)-3-phenylureido]butyr-amide] | 210 | 
16 | NC(=O)CCCN(CCc1ccccc1)C(=O)Nc1ccccc1 [Compound 13, 4-(1-phenethyl-3-phenylureido)butyramide] | 450 | 
17 | C[C@@H](C(=O)N(CCCC(N)=O)CCCC1CCCCC1)c1ccccc1 [Compound 1, (R)-4-[(3-cyclohexylpropyl)-(2-phenylpropionyl)amino]-butyramide] | 2900 | 
18 | NC(=O)CCCN(CCC1CCCCC1)C(=O)Nc1ccccc1 [Compound 12, 4-[1-(2-cyclohexylethyl)-3-phenylureido]butyramide] | 410 | 
